The values that follow come from publication PMC7041903, “Isothermal Titration Calorimetry Enables Rapid Characterization of Enzyme Kinetics and Inhibition for the Human Soluble Epoxide Hydrolase” (Analytical Chemistry, 2019).

For assay [1], the target named is T1, human soluble epoxide hydrolase (hsEH) (Homo sapiens, UniProt P34913).
T1 construct: gene EPHX2; C-terminal domain (CTD)
T1 sequence (P34913 230-555 limits assumed): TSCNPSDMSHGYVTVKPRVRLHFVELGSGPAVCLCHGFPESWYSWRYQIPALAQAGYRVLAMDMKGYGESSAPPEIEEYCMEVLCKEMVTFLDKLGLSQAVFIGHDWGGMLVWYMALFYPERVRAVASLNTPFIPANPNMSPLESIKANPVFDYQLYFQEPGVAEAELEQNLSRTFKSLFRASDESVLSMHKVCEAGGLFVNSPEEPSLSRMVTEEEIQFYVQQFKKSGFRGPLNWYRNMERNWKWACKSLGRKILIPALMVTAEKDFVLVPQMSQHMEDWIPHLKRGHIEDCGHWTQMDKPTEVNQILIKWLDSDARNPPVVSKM
Nature of the assay: single-injection ITC enzyme kinetics (KM). Format: biochemical.

The target in assay [2] is T1, human soluble epoxide hydrolase (hsEH). Kind of assay: single-injection ITC enzyme kinetics (KM; saturation not reached). The format is biochemical.

A word on the Km: it is the concentration of substrate that gives half-maximal velocity. Regarding `CC/C=C\C/C=C\C/C=C\CC1OC1C/C=C\CCCC(=O)O` (stereo not shown) [8(9)EpETE], the Km in assay [1] stood at 9.74 ± 0.13 µM.
Same read-out and setting: then `CCCCCC1OC1C/C=C\C/C=C\C/C=C\CCCC(=O)O` (stereo not shown) [14(15)EET], with 12.9 ± 1.94 µM.
Consider `CCC1OC1C/C=C\C/C=C\C/C=C\C/C=C\CCCC(=O)O` (stereo not shown) [17(18)EpETE], for which, in assay [1], the Km came to 26.4 ± 4.05 µM.
With `CCCCC/C=C\C/C=C\C/C=C\CC1OC1CCCC(=O)O` (stereo not shown) [5(6)EET], the Km in assay [2] was 46.6 ± 11 µM.
On to `CCCCC/C=C\CC1OC1C/C=C\C/C=C\CCCC(=O)O` (stereo not shown) [11(12)EET], for which the Michaelis constant (Km) in assay [1] was 1.74 ± 0.2 µM.
Same read-out and setting: then `CCCCC/C=C\C/C=C\CC1OC1C/C=C\CCCC(=O)O` (stereo not shown) [8(9)EET], with 23.1 ± 2.39 µM.
Still for that read-out and setting: then `CCC1OC1C/C=C\C/C=C\C/C=C\C/C=C\C/C=C\CCC(=O)O` (stereo not shown) [19(20)EpDPE], with 26.6 ± 1.21 µM.
